Assay results published in patent US6777434B2, “Thiazolidine-4-one derivative, method for preparing the same, and pharmaceutical composition containing the same” (CJ Corp., priority 2002, dated 2004).

Key:
COX-2 = target: T1, COX-2 (Mus musculus, UniProt Q05769); experiment: Assay for the COX-2 inhibitory activity using RAW 264.7 cell line (PGE2 inhibition); type: cell-based; settings: for inhibition (%) ratio of COX-2 to COX-1 compared with the reference Valdecoxib: COX-2 at 10 nM (RAW 264.7) versus COX-1 at 1 μM (U-937); for inhibition at 0.01 µM: RAW264.7, 10 nM test compound, RAW 264.7 cells, interferon and LPS, 18 hours, PGE2 by EIA, read-out: Cyclooxygenase (COX) Inhibition (%) COX-2 (10 nM); for COX-2 inhibitory activity compared with the reference: 10 nM, RAW 264.7, comparison with Valdecoxib
T1 construct: host or cells: RAW 264.7 cells, pre-treated with aspirin, then induced with interferon and LPS
T1 sequence (Q05769 18-604): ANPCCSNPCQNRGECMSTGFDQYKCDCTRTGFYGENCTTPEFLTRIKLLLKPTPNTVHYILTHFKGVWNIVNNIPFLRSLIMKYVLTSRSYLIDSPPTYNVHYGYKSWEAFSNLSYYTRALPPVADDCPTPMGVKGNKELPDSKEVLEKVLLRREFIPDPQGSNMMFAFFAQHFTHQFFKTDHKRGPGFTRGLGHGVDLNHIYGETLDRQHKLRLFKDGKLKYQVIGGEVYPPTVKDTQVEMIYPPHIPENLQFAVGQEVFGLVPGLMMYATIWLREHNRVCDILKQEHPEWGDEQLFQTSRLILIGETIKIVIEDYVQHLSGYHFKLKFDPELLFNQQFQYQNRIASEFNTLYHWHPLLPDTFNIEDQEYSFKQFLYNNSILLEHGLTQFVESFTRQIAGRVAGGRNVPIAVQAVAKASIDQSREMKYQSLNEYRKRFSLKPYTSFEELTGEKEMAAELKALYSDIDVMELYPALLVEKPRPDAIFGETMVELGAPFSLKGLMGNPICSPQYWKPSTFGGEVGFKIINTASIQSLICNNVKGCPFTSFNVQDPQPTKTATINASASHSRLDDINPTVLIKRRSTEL
Method: Each well was treated with 250 μM of aspirin and incubated at 37° C. for 2 hours. After the culture media were replaced with new culture media, the new culture media were treated with a test compound (10 nM) and incubated for 30 minutes. Then, each well was treated with interferon ? (100 units/ml) and lipopolysaccharide (LPS, 100 ng/ml) and incubated for 18 hours. The culture media were transferred to another test tubes. The concentration of PGE2 was quantified by means of the EIA kit (Cayman Chemicals):
(§1) The percentages of the COX inhibition were calculated according to the following equation:
(§2) % Inhibition=(concentration of PGE2 in test compound-untreated sample−concentration of PGE2 in test compound-treated sample)/(concentration of PGE2 in test compound-untreated sample)×100

COX-1 = target: T2, COX-1 (Homo sapiens, UniProt P23219); experiment: Assay for the COX-1 inhibitory activity using U-937 (PGE2 inhibition); type: cell-based; settings: 1 μM test compound; U-937 human lymphoma cells; PGE2 after arachidonic acid; read-out: Cyclooxygenase (COX) Inhibition (%) COX-1 (1 μM)
T2 construct: host or cells: U-937 human lymphoma cells
T2 sequence (P23219 24-599): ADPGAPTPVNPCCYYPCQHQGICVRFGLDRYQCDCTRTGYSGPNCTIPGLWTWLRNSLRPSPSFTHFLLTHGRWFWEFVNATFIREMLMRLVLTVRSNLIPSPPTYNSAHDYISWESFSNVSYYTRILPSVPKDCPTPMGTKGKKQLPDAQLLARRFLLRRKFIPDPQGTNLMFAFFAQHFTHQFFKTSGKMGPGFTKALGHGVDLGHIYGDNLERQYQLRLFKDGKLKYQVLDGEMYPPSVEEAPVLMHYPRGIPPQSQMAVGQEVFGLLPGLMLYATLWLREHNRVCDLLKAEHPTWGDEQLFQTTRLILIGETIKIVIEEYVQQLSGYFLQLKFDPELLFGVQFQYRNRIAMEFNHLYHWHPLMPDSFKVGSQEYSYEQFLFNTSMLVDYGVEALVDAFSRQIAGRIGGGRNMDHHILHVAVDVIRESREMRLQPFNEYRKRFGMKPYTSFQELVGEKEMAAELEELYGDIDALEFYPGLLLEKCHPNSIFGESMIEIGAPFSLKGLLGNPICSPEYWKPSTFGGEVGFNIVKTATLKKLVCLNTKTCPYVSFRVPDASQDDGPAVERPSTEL
Method: The collected cells were diluted with HBSS (×1, Hank's balanced salt solution) to a concentration of 1×10^6 cells/ml. 1 ml of the dilute cell solution was placed into each well of 12-well plates. 5 μl of 1 μM solution of a test compound in DMSO and 5 μl of DMSO as a control were added to the wells. The wells were incubated in CO2 incubator at 37° C. for 15 minutes. Separately, 10 mM stock solution of arachidonic acid in ethanol was diluted ten times in ethanol to prepare 1 mM solution of arachidonic acid. Arachidonic acid acts as a substrate. 10 μl of the 1 mM solution of arachidonic acid was added to each well and incubated at CO2 incubator at 37° C. for 30 minutes. The cell solution of each well was placed in a centrifuge test tube and centrifuged at 10,000 rpm at 4° C. for 5 minutes. The concentration of PGE2 in the collected cells and the supernatant was quantified by means of a monoclonal kit (Cayman Chemicals). The percentages of PGE2 inhibition in a group of the test compound-treated cells in relation to a group of the DMSO-treated cells were calculated. Based on the calculated values, the COX-1 inhibitory activities were evaluated.
as §1, §2

SMILES | inhibition (%) ratio of COX-2 to COX-1 compared with the reference Valdecoxib (COX-2) | inhibition at 0.01 µM (COX-2) | inhibition at 1 µM (COX-1) | COX-2 inhibitory activity compared with the reference (COX-2)
CS(=O)(=O)c1ccc(C2SCC(=O)N2c2ccc(C#N)cc2)cc1 (stereo not drawn) [Example 5, 3-(4-cyanophenyl)-2-(4-methanesulfonylphenyl)thiazolidine-4-one] | significantly higher than that in the reference | 6.54% | 10.1% | –
CS(=O)(=O)c1ccc(C2SCC(=O)N2c2cc(F)cc(F)c2)cc1 (stereo not drawn) [Example 6, 3-(3,5-difluorophenyl)-2-(4-methanesulfonylphenyl)thiazolidine-4-one] | significantly higher than that in the reference | 12.1% | 38% | significantly higher than the reference
CS(=O)(=O)c1ccc(C2SCC(=O)N2c2ccccc2)cc1 (stereo not drawn) [Example 4, 2-(4-methanesulfonylphenyl)-3-phenylthiazolidine-4-one] | significantly higher than that in the reference | 16% | 26% | significantly higher than the reference
Cc1ccc(N2C(=O)CSC2c2ccc(S(C)(=O)=O)cc2)cc1F (stereo not drawn) [Example 2, 3-(3-fluoro-4-methylphenyl)-2-(4-methanesulfonylphenyl)thiazolidine-4-one] | significantly higher than that in the reference | 16% | 29.2% | significantly higher than the reference
